# Patent US20240368120A1 (Terns Pharmaceuticals, Inc., priority 2023, published 2024)
# Tests used:
# [1] = target: T1, human GLP-1R receptor (Homo sapiens, UniProt P43220); assay: GLP-1R low expression cell assay (cAMP TR-FRET, CHO-K1_hGLP-1Rlow_clone10 cells); type: cell-based; details: for EC50: cAMP TR-FRET, 30 min at 25° C.; for Emax: maximum activation relative to control GLP-1 peptide agonist
# T1 construct: expressed in transfected cells
# How it was run: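 CHO-K1 cells stably expressing low surface human GLP-1R (clone10), 1,000 cells/well, exposed to 10-point 3-fold compound dilutions for 30 min at 25 °C. cAMP measured by TR-FRET (Eu-cAMP tracer/ULight-anti-cAMP, 15 min). EC50 from Hill fit of duplicate percent activation relative to a parallel GLP-1 control agonist.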
# [2] = Rat pharmacokinetics, oral dosing; type: in vivo, Sprague-Dawley rats; details: male, Sprague-Dawley, oral dosing at 3 mg/kg, plasma; for half-life: read-out: Rat T1/2
# T1 sequence (P43220 24-463): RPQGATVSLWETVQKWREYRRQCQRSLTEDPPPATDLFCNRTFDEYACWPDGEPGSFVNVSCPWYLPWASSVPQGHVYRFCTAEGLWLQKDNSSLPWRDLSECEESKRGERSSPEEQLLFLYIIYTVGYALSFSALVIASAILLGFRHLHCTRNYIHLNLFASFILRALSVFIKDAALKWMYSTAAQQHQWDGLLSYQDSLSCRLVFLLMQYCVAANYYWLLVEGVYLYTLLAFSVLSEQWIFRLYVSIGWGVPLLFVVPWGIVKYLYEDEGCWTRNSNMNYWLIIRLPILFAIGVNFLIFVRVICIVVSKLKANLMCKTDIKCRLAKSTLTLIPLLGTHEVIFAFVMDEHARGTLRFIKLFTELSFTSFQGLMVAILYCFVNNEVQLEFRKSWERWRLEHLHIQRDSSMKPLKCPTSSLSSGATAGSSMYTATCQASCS
SMILES,EC50 [1],Emax [1],AUC [2],Cmax [2],half-life [2],bioavailability [2]
"COc1cc(C(=O)O)cc2c1nc(CN1CC[C@@H](c3cccc4c3O[C@@](C)(c3ccc(Cl)cn3)O4)[C@@H]3C[C@@H]31)n2C[C@@H]1CCO1 [Compound 89, 2-(((1S,5R,6S)-5-((S)-2-(5-Chloropyridin-2-yl)-2-methylbenzo[d][1,3]dioxol-4-yl)-2-azabicyclo[4.1.0]heptan-2-yl)methyl)-4-methoxy-1-(((S)-oxetan-2-yl)methyl)-1H-benzo[d]imidazole-6-carboxylic acid]",< 10 nM,> 85%,< 500 ng·h/mL,< 500 ng/mL,1.5 to 2.5 h,25 to 50%
"COc1cc(C(=O)O)cc2c1nc(CN1CCC(c3cccc(OCc4ccc(C#N)cc4F)n3)CC1)n2C [Compound 308, 2-((4-(6-((4-Cyano-2-fluorobenzyl)oxy)pyridin-2-yl)piperidin-1-yl)methyl)-4-methoxy-1-methyl-1H-benzo[d]imidazole-6-carboxylic acid]",< 10 nM,> 85%,2500 to 10000 ng·h/mL,1000 to 2000 ng/mL,1.5 to 2.5 h,50 to 85%
"COc1cc(C(=O)O)c(F)c2c1nc(CN1CCC(c3cccc(OCc4ccc(Cl)cc4F)n3)CC1)n2C [Compound 302, 2-((4-(6-((4-Chloro-2-fluorobenzyl)oxy)pyridin-2-yl)piperidin-1-yl)methyl)-7-fluoro-4-methoxy-1-methyl-1H-benzo[d]imidazole-6-carboxylic acid]",< 10 nM,> 85%,2500 to 10000 ng·h/mL,2000 to 5000 ng/mL,≥ 2.5 h,50 to 85%
"Cn1c(CN2CCC(c3cccc4c3O[C@@](C)(c3ccc(Cl)cn3)O4)CC2)nc2c(OC(F)F)cc(C(=O)O)cc21 [Compound 83, (S)-2-((4-(2-(5-Chloropyridin-2-yl)-2-methylbenzo[d][1,3]dioxol-4-yl)piperidin-1-yl)methyl)-4-(difluoromethoxy)-1-methyl-1H-benzo[d]imidazole-6-carboxylic acid]",< 10 nM,> 85%,2500 to 10000 ng·h/mL,2000 to 5000 ng/mL,≥ 2.5 h,> 85%
"Cn1c(CN2CCC(c3ccc(F)c(OCc4ccc(Cl)cc4F)c3)CC2)nc2c(OC(F)F)cc(C(=O)O)cc21 [Compound 216, 2-((4-(3-((4-Chloro-2-fluorobenzyl)oxy)-4-fluorophenyl)piperidin-1-yl)methyl)-4-(difluoromethoxy)-1-methyl-1H-benzo[d]imidazole-6-carboxylic acid]",10 to 100 nM,> 85%,–,> 5000 ng/mL,1.5 to 2.5 h,50 to 85%
"COc1cc(C(F)(F)F)ccc1COc1cccc(C2CCN(Cc3nc4c(OC)cc(C(=O)O)cc4n3C)CC2)n1 [Compound 306, 4-Methoxy-2-((4-(6-((2-methoxy-4-(trifluoromethyl)benzyl)oxy)pyridin-2-yl)piperidin-1-yl)methyl)-1-methyl-1H-benzo[d]imidazole-6-carboxylic acid]",< 10 nM,> 85%,2500 to 10000 ng·h/mL,2000 to 5000 ng/mL,1.5 to 2.5 h,50 to 85%
"[2H]C([2H])(C)Oc1cc(C(=O)O)cc2c1nc(CN1CCC(c3cccc(OCc4ccc(Cl)cc4F)n3)CC1)n2C [Compound 296, 2-((4-(6-((4-Chloro-2-fluorobenzyl)oxy)pyridin-2-yl)piperidin-1-yl)methyl)-4-(ethoxy-1,1-d2)-1-methyl-1H-benzo[d]imidazole-6-carboxylic acid]",< 10 nM,> 85%,2500 to 10000 ng·h/mL,2000 to 5000 ng/mL,1.5 to 2.5 h,25 to 50%
"COc1cc(C(=O)O)cc2c1nc(CN1CCC(c3cccc4c3O[C@@](C)(c3ccc(Cl)cn3)O4)CC1)n2C [Compound 85, (S)-2-((4-(2-(5-Chloropyridin-2-yl)-2-methylbenzo[d][1,3]dioxol-4-yl)piperidin-1-yl)methyl)-4-methoxy-1-methyl-1H-benzo[d]imidazole-6-carboxylic acid]",< 10 nM,> 85%,2500 to 10000 ng·h/mL,1000 to 2000 ng/mL,1.5 to 2.5 h,25 to 50%
"Cn1c(CN2CCC(c3cccc(OCc4ccc(Cl)cc4F)n3)CC2)nc2c(O)cc(C(=O)O)cc21 [Compound 307, 2-((4-(6-((4-Chloro-2-fluorobenzyl)oxy)pyridin-2-yl)piperidin-1-yl)methyl)-4-hydroxy-1-methyl-1H-benzo[d]imidazole-6-carboxylic acid]",10 to 100 nM,> 85%,< 500 ng·h/mL,< 500 ng/mL,≥ 2.5 h,25 to 50%
"C[C@]1(c2ccc(Cl)cn2)Oc2cccc(C3CCN(Cc4nc5c(OC6COC6)cc(C(=O)O)cc5n4C[C@@H]4CCO4)CC3)c2O1 [Compound 72, 2-((4-((S)-2-(5-Chloropyridin-2-yl)-2-methylbenzo[d][1,3]dioxol-4-yl)piperidin-1-yl)methyl)-1-(((S)-oxetan-2-yl)methyl)-4-(oxetan-3-yloxy)-1H-benzo[d]imidazole-6-carboxylic acid]",< 10 nM,> 85%,< 500 ng·h/mL,< 500 ng/mL,< 1.5 h,< 25%
"C[C@@]1(c2ccc(Cl)cn2)Oc2cccc(C3CCN(Cc4nc5c(OC6CC6)cc(C(=O)O)cc5n4Cc4cncs4)CC3)c2O1 [Compound 7, (R)-2-((4-(2-(5-chloropyridin-2-yl)-2-methylbenzo[d][1,3]dioxol-4-yl)piperidin-1-yl)methyl)-4-cyclopropoxy-1-(thiazol-5-ylmethyl)-1H-benzo[d]imidazole-6-carboxylic acid]",10 to 100 nM,> 85%,< 500 ng·h/mL,< 500 ng/mL,≥ 2.5 h,< 25%
"COc1cc(C(=O)O)cc2c1nc(N(C)[C@H]1CC[C@H](c3cccc4c3O[C@@](C)(c3ccc(Cl)cn3)O4)CC1)n2C[C@@H]1CCO1 [Compound 80, 2-(((1S,4S)-4-((S)-2-(5-Chloropyridin-2-yl)-2-methylbenzo[d][1,3]dioxol-4-yl)cyclohexyl)(methyl)amino)-4-methoxy-1-(((S)-oxetan-2-yl)methyl)-1H-benzo[d]imidazole-6-carboxylic acid]",< 10 nM,> 85%,< 500 ng·h/mL,< 500 ng/mL,≥ 2.5 h,< 25%
"COc1cc(C#N)ccc1COc1cccc(C2CCN(Cc3nc4c(OC(F)F)cc(C(=O)O)cc4n3C)CC2)n1 [Compound 156, 2-((4-(6-((4-Cyano-2-methoxybenzyl)oxy)pyridin-2-yl)piperidin-1-yl)methyl)-4-(difluoromethoxy)-1-methyl-1H-benzo[d]imidazole-6-carboxylic acid]",< 10 nM,> 85%,2500 to 10000 ng·h/mL,2000 to 5000 ng/mL,< 1.5 h,50 to 85%
"COc1cc(C(=O)O)cc2c1nc(CN1CCC(c3cccc(OCc4ccc(C(F)F)cc4F)n3)CC1)n2C [Compound 305, 2-((4-(6-((4-(Difluoromethyl)-2-fluorobenzyl)oxy)pyridin-2-yl)piperidin-1-yl)methyl)-4-methoxy-1-methyl-1H-benzo[d]imidazole-6-carboxylic acid]",10 to 100 nM,> 85%,2500 to 10000 ng·h/mL,2000 to 5000 ng/mL,1.5 to 2.5 h,50 to 85%
